Literature values in patent US20200085832A1, “DEUTERATED ANALOGS OF AN ORGANIC COMPOUND” (Agios Pharmaceuticals, Inc., priority 2019, published 2020).

Columns and labels:
mutant IDH2 (mIDH2) = conditions: D. Rohle et al. Science 340:626-630 (2013)
mIDH1-driven gliomas = conditions: some model systems
mutant IDH1 (mIDH1) = conditions: D. Rohle et al. Science 340:626-630 (2013)
mutant IDH2 = conditions: biochemical and cellular assays
mutant IDH1 = conditions: biochemical and cellular assays

Row | Structure (SMILES) | inhibition of mutant IDH2 (mutant IDH2 (mIDH2)) | growth of mIDH1-driven gliomas (mIDH1-driven gliomas) | inhibition of mutant IDH1 (mutant IDH1 (mIDH1)) | inhibitor of mutant IDH2 protein (mutant IDH2) | inhibitor of mutant IDH1 protein (mutant IDH1)
1 | Cc1ccccc1C(C(=O)NC1CCCCC1)N(C(=O)Cn1ccnc1C)c1cccc(F)c1 (centres unmarked) [AGI-5198] | not mutant IDH2 (mIDH2) | repress growth of mIDH1-driven gliomas | inhibit mutant IDH1 (mIDH1) |  | 
2 | C[C@@H](Nc1nc(N[C@H](C)C(F)(F)F)nc(-c2cccc(Cl)n2)n1)C(F)(F)F [Compound X, 6-(6-chloropyridin-2-yl)-N^2,N^4-bis((R)-1,1,1-trifluoropropan-2-yl)-1,3,5-triazine-2,4-diamine] |  |  |  | inhibitor of mutant IDH1 and IDH2 proteins | inhibitor of mutant IDH1 and IDH2 proteins
